Earlier results on one compound are cited in US20210121408A1, “Methods of Administering Cannabinoid to People Diagnosed With HIV” (priority 2019, published 2021).

The structures appear in SMILES notation.

Regarding `CCCCCc1cc(O)c2c(c1)OC(C)(C)[C@@H]1CCC(C)=C[C@@H]21` [THC, delta-9-tetrahydrocannabinol], the “solubility in ethanol, acetone, chloroform and light petroleum” value (ethanol, acetone, chloroform and light petroleum) was “soluble”. Besides, for the setting “water”, the solubility in water result is “insoluble”.
